# From the supplement of paper PMC10307832
# Compound: C1=CC2=NC=CN=C2C=C1/C=C/3\C(=O)NC(=O)S3 + CC(C)C[C@H](NC(=O)[C@H](Cc1ccccc1)NC(=O)c1cnccn1)B(O)O [Bortezomib] (partner 0.002 µM)
# Experiment: relative viability (nuclei count vs DMSO), 5 days (fraction); higher = more cells survive
# Settings: first compound 0.02 µM
# How it was run: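 Lung cancer cell lines in 1536-well plates got either a single drug or a fixed anchor-drug dose together with five library-drug doses (not always all listed) in √10 steps, by pin tool, on the day after seeding. Nuclei were counted after 5 days, and relative viability is the treated-to-vehicle ratio of nuclei counts. Values are medians of duplicate plates.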
row,Cell Line,relative viability
1,NCI-H2405,0.96
2,HOP-62,0.908
3,HCC-44,0.818
4,LU99A,1.09
5,BEN,0.803
6,HARA,1.11
7,HCC-78,0.497
8,NCI-H322M,1.18
9,LCLC-97TM1,0.624
10,NCI-H2009,0.954
11,A-427,0.991
12,NCI-H441,0.272
13,NCI-H661,0.925
14,NCI-H1734,0.761
15,NCI-H460,1.01
16,NCI-H2347,0.769

row,Cell Line,relative viability
1,SK-LU-1,1.37
2,201T,0.979
3,NCI-H1915,0.985
4,HCC-827,0.981
5,LXF-289,0.977
6,NCI-H23,0.954
7,NCI-H647,1.1
8,NCI-H1651,0.956
9,EPLC-272H,0.8
10,NCI-H1792,0.863
11,NCI-H1355,1.02
12,NCI-H3122,1.02
13,NCI-H1437,0.475
14,NCI-H1755,0.927
15,NCI-H2023,0.924
16,HCC-15,1.01

# Same assay, conditions: first compound 0.06325 µM
row,Cell Line,relative viability
1,NCI-H2405,1.06
2,HOP-62,0.819
3,HCC-44,0.958
4,LU99A,1.32
5,BEN,0.982
6,HARA,1.18
7,HCC-78,0.378
8,NCI-H322M,1.1
9,LCLC-97TM1,0.515
10,NCI-H2009,1.07
11,A-427,1.1
12,NCI-H441,0.289
13,NCI-H661,0.614
14,NCI-H460,1.05
15,NCI-H2347,1.17
16,SK-LU-1,1.32

row,Cell Line,relative viability
1,201T,1.1
2,NCI-H1915,1.05
3,HCC-827,0.912
4,LXF-289,0.985
5,NCI-H23,1.37
6,NCI-H647,1.16
7,NCI-H1651,0.637
8,EPLC-272H,1.05
9,NCI-H1792,0.734
10,NCI-H1355,1.23
11,NCI-H3122,1.01
12,NCI-H1437,0.647
13,NCI-H1755,1.05
14,NCI-H2023,0.923
15,HCC-15,0.995

# Same assay, conditions: first compound 0.2 µM
row,Cell Line,relative viability
1,NCI-H2405,0.991
2,HOP-62,1.07
3,HCC-44,0.869
4,LU99A,1.41
5,BEN,0.904
6,HARA,1.26
7,HCC-78,0.588
8,NCI-H322M,1.26
9,LCLC-97TM1,0.573
10,NCI-H2009,1.11
11,A-427,1.04
12,NCI-H661,0.812
13,NCI-H1734,1
14,NCI-H460,1.03
15,NCI-H2347,1.05
16,SK-LU-1,1.44

row,Cell Line,relative viability
1,201T,1.1
2,NCI-H1915,1.05
3,HCC-827,1
4,LXF-289,1.05
5,NCI-H23,1.27
6,NCI-H647,1.11
7,NCI-H1651,0.949
8,EPLC-272H,0.898
9,NCI-H1792,0.928
10,NCI-H1355,1.18
11,NCI-H3122,1
12,NCI-H1437,0.564
13,NCI-H1755,0.961
14,NCI-H2023,1.03
15,HCC-15,1.04

# Same assay, conditions: first compound 0.6325 µM
row,Cell Line,relative viability
1,NCI-H2405,1
2,HOP-62,0.757
3,HCC-44,0.883
4,LU99A,1.07
5,BEN,0.566
6,HARA,1.09
7,HCC-78,0.346
8,NCI-H322M,1.19
9,LCLC-97TM1,0.776
10,NCI-H2009,0.969
11,A-427,0.915
12,NCI-H441,0.403
13,NCI-H661,0.751
14,NCI-H1734,0.919
15,NCI-H460,0.932
16,NCI-H2347,0.932

row,Cell Line,relative viability
1,SK-LU-1,1.29
2,201T,1.08
3,NCI-H1915,0.99
4,HCC-827,1.05
5,LXF-289,0.941
6,NCI-H23,0.843
7,NCI-H647,0.72
8,NCI-H1651,0.96
9,EPLC-272H,0.857
10,NCI-H1792,0.952
11,NCI-H1355,1.2
12,NCI-H3122,1.08
13,NCI-H1437,0.475
14,NCI-H1755,0.917
15,NCI-H2023,0.875
16,HCC-15,0.99

# Same assay, conditions: first compound 2 µM
row,Cell Line,relative viability
1,NCI-H2405,0.782
2,HOP-62,0.707
3,HCC-44,0.71
4,LU99A,0.747
5,BEN,0.705
6,HARA,1.15
7,HCC-78,0.275
8,NCI-H322M,0.973
9,LCLC-97TM1,0.125
10,NCI-H2009,0.801
11,A-427,0.965
12,NCI-H441,0.494
13,NCI-H661,0.95
14,NCI-H1734,0.747
15,NCI-H460,0.942
16,NCI-H2347,0.926

row,Cell Line,relative viability
1,SK-LU-1,0.783
2,201T,1.03
3,NCI-H1915,1
4,HCC-827,0.973
5,LXF-289,1.02
6,NCI-H23,0.678
7,NCI-H647,0.951
8,NCI-H1651,0.893
9,EPLC-272H,0.808
10,NCI-H1792,0.688
11,NCI-H1355,1.05
12,NCI-H3122,0.975
13,NCI-H1437,0.408
14,NCI-H1755,0.859
15,NCI-H2023,0.645
16,HCC-15,0.966
